Measurements from patent US9931346B2, “Serotonin-norepinephrine reuptake inhibitors (SNRIs) and Sigma receptor ligands combinations” (LABORATORIOS DEL DR. ESTEVE S.A., priority 2013, dated 2018).
Where a name gives a salt, the structure may show the parent alone.

System: mechanical allodynia of the post-operative pain model
Assay: Mechanical allodynia (von Frey filaments) in the post-operative pain model (plantar incision) in rats
Type: in vivo
Procedure: The induction of anesthesia in rats was performed with 3% isofluran for veterinary use, employing an Ohmeda vaporizer and an anesthesia chamber. Anesthesia was kept during the surgical operation by a tube which directs the isofluran vapors to the animal's snout. Once the rats were anesthetized, they were laid down in a prone position and their right hind paws were cleaned out with alcohol.
Then, a skin incision in the hindpaw of about 10 mm was made by means of a scalpel, starting about 5 mm from the heel and extending toward the toes. Fascia was located and by means of curve scissors muscle was elevated and a longitudinal incision of about 5 mm was made, thus the muscle origin and insertion remained intact. The skin of the paw was stitched with a suturing stitch with breaded silk (3.0) and the wound was cleaned out with povidone.
The assessment was performed 30 minutes after the administration of product and always 4 hours after the plantar incision. The analysis was carried out evaluating the mechanical allodynia. It was tested using von Frey filaments: Animals were placed in methacrylate cylinders on an elevated surface, with metallic mesh floor perforated in order to apply the filaments. After an acclimation period of about 30 minutes within the cylinders, both hindpaws were stimulated (the injured and the non-injured paw, serving the latter as control), starting with the lowest force filament (0.4 g) and reaching a 15 g filament. The animal's response to pain was manifested by the withdrawal of the paw as a consequence of the painful stimulus caused by a filament.
(§1) The efficacy of the combined use of venlafaxine and compound 63.HCl was tested at different doses of compound 63.HCl (5, 10, 20, 40 and 80 mg/kg), while the venlafaxine dose remained constant (2.5 mg/kg). The administrations were performed 3.5 hours after surgery. The treated subjects were tested according to the mechanical allodynia protocol above (FIG. 1).
as §1, with “duloxetine” for “venlafaxine”, “(10,” for “(5, 10,”, “(0.625” for “(2.5”, “2).” for “1).”

CNCC[C@H](Oc1cccc2ccccc12)c1cccs1 [Duloxetine, duloxetine]
effect on mechanical allodynia (analgesia) (FIG. 2, Duloxetine alone, sub-active dose 0.625 mg/kg): non-significant effect

COc1ccc(C(CN(C)C)C2(O)CCCCC2)cc1 (stereo not shown) [Venlafaxine, venlafaxine]
effect on mechanical allodynia (analgesia) (FIG. 1, Venlafaxine alone, sub-active dose 2.5 mg/kg): non-significant effect

Cc1cc(OCCN2CCOCC2)nn1-c1ccc2ccccc2c1 [compound 63.HCl, 4-{2-[5-Methyl-1-(naphthalen-2-yl)-1H-pyrazol-3-yloxy]ethyl}morpholine hydrochloride]
maximum effect (analgesia, mechanical allodynia) (FIG. 1, compound 63.HCl alone, 5-80 mg/kg, assessed 30 min after administration, 4 h after plantar incision): 43% | ED50 (Rattus norvegicus, FIG. 2, compound 63.HCl alone, 10-80 mg/kg, read-out: ED50 (analgesia, mechanical allodynia)): 40 mg/kg
